According to PubChem BioAssay (NCI):
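Cells were grown in 96-well plates and exposed to each compound for 48 hours at five concentrations; endpoints were interpolated linearly between bracketing concentrations, or set to the highest concentration if not reached. Definition used: TGI = concentration required for complete inhibition of growth.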

Key:
Experiment in all cases: NCI tumour cell line growth inhibition, 48 h
[1] = test system: SK-OV-3 ovarian
[2] = test system: SK-MEL-28 melanoma
[3] = test system: NCI-H23 lung
[4] = test system: LOX IMVI melanoma
[5] = test system: MCF7 breast
[6] = test system: HT29 colon
[7] = test system: SF-268 CNS
[8] = test system: UO-31 renal
[9] = test system: BT-549 breast
[10] = test system: HOP-92 NSCLC
[11] = test system: IGROV1 ovarian
[12] = test system: SNB-19 CNS
[13] = test system: MOLT-4 leukemia
[14] = test system: OVCAR-8 ovarian
[15] = test system: COLO 205 colon
[16] = test system: HCT-15 colon
[17] = test system: CAKI-1 renal
[18] = test system: HL-60(TB) leukemia
[19] = test system: UACC-62 melanoma
[20] = test system: OVCAR-4 ovarian
[21] = test system: T-47D breast
[22] = test system: K-562 leukemia
[23] = test system: HCC-2998 colon
[24] = test system: A549 NSCLC
[25] = test system: NCI-H226 lung
[26] = test system: RPMI-8226 leukemia
[27] = test system: PC-3 prostate
[28] = test system: KM12 colon
[29] = test system: HOP-62 NSCLC
[30] = test system: SN12C renal
[31] = test system: HS 578T breast
[32] = test system: EKVX NSCLC
[33] = test system: 786-0 renal
[34] = test system: SR leukemia
[35] = test system: SW-620 colon
[36] = test system: MDA-N
[37] = test system: ACHN renal
[38] = test system: MDA-MB-231 breast
[39] = test system: SK-MEL-2 melanoma
[40] = test system: NCI/ADR-RES ovarian
[41] = test system: SNB-75 CNS
[42] = test system: A498 renal
[43] = test system: SF-539 CNS
[44] = test system: MALME-3M melanoma
[45] = test system: SK-MEL-5 melanoma
[46] = test system: DU-145 prostate
[47] = test system: CCRF-CEM leukemia
[48] = test system: OVCAR-3 ovarian
[49] = test system: MDA-MB-435
[50] = test system: U251 CNS
[51] = test system: NCI-H522 lung
[52] = test system: SF-295 CNS
[53] = test system: NCI-H460 lung
[54] = test system: UACC-257 melanoma
[55] = test system: TK-10 renal
[56] = test system: RXF 393 renal
[57] = test system: OVCAR-5 ovarian
[58] = test system: M14 melanoma
[59] = test system: HCT-116 colon

O=C(Nc1nnc(-c2ccc(Cl)cc2)o1)C(SC(=S)N1CCCCC1)c1ccccc1 (stereo not drawn)
TGI [1]: > 100 µM
TGI [2]: 56.3 µM
TGI [3]: > 76.8 µM
TGI [4]: > 50.6 µM
TGI [5]: 49.9 µM
TGI [6]: > 75.3 µM
TGI [7]: 61.1 µM
TGI [8]: 27.8 µM
TGI [9]: > 86.7 µM
TGI [10]: > 63.3 µM
TGI [11]: > 65.6 µM
TGI [12]: > 100 µM
TGI [13]: 12.3 µM
TGI [14]: > 100 µM
TGI [15]: > 100 µM
TGI [16]: > 81.5 µM
TGI [17]: > 100 µM
TGI [18]: 26.2 µM
TGI [19]: 31.8 µM
TGI [20]: > 100 µM
TGI [21]: > 100 µM
TGI [22]: > 88 µM
TGI [23]: 76.8 µM
TGI [24]: 56.8 µM
TGI [25]: 85.2 µM
TGI [26]: 38.2 µM
TGI [27]: > 100 µM
TGI [28]: > 100 µM
TGI [29]: > 100 µM
TGI [30]: 41.6 µM
TGI [31]: 85 µM
TGI [32]: 54.1 µM
TGI [33]: > 78.2 µM
TGI [34]: 16.2 µM
TGI [35]: > 100 µM
TGI [36]: 37.2 µM
TGI [37]: 66.5 µM
TGI [38]: 69.8 µM
TGI [39]: 52.6 µM
TGI [40]: > 68.2 µM
TGI [41]: > 100 µM
TGI [42]: 44.4 µM
TGI [43]: > 84.2 µM
TGI [44]: 36.6 µM
TGI [45]: 32.5 µM
TGI [46]: > 100 µM
TGI [47]: > 43.5 µM
TGI [48]: > 72.6 µM
TGI [49]: 97.6 µM
TGI [50]: > 100 µM
TGI [51]: 37.7 µM
TGI [52]: > 100 µM
TGI [53]: 31.6 µM
TGI [54]: > 70.4 µM
TGI [55]: > 100 µM
TGI [56]: > 75.9 µM
TGI [57]: 64.2 µM
TGI [58]: 32.1 µM
TGI [59]: 34.8 µM

CCCCC(=O)OC[n+]1ccc(-c2c(COC(=O)NC(C)C)c(COC(=O)NC(C)C)c3n2CCC3)cc1
TGI [1]: > 100 µM
TGI [2]: > 100 µM
TGI [3]: > 100 µM
TGI [4]: > 100 µM
TGI [5]: > 100 µM
TGI [6]: > 100 µM
TGI [7]: > 100 µM
TGI [8]: > 100 µM
TGI [9]: > 100 µM
TGI [10]: > 100 µM
TGI [11]: > 100 µM
TGI [12]: > 100 µM
TGI [13]: > 80.7 µM
TGI [14]: > 100 µM
TGI [15]: > 100 µM
TGI [16]: > 100 µM
TGI [17]: > 100 µM
TGI [18]: > 79.8 µM
TGI [19]: > 100 µM
TGI [20]: > 100 µM
TGI [21]: > 100 µM
TGI [22]: > 100 µM
TGI [23]: > 100 µM
TGI [24]: > 100 µM
TGI [25]: > 100 µM
TGI [26]: > 100 µM
TGI [27]: > 100 µM
TGI [28]: > 100 µM
TGI [29]: > 100 µM
TGI [30]: > 100 µM
TGI [31]: > 100 µM
TGI [32]: > 100 µM
TGI [33]: > 100 µM
TGI [34]: > 84.4 µM
TGI [35]: > 100 µM
TGI [36]: > 100 µM
TGI [37]: > 100 µM
TGI [38]: > 100 µM
TGI [39]: > 100 µM
TGI [40]: > 100 µM
TGI [41]: > 100 µM
TGI [42]: 76.5 µM
TGI [43]: > 100 µM
TGI [44]: > 100 µM
TGI [45]: > 100 µM
TGI [46]: > 100 µM
TGI [47]: > 100 µM
TGI [48]: > 100 µM
TGI [49]: > 100 µM
TGI [50]: > 100 µM
TGI [51]: > 100 µM
TGI [52]: > 100 µM
TGI [53]: > 100 µM
TGI [54]: > 100 µM
TGI [55]: > 100 µM
TGI [56]: > 100 µM
TGI [57]: > 100 µM
TGI [58]: > 100 µM
TGI [59]: > 100 µM
